Measurements reported in patent publication US11013673B2, “Cosmetic compositions containing quinones and their topical use on skin and hair” (Repairogen Corp, priority 2016, dated 2021).
Each block holds one compound with its values, some of them ahead of it.

Legend:
CUL4A [1] = target: CUL4A (Homo sapiens, UniProt Q13619); assay: BPB-CUL4A AlphaLISA assay (cell free CUL4 inhibition assay); type: biochemical
Protocol: (§1) A BPB-CUL4A AlphaLISA assay was performed using the 54 compounds to determine their CUL4A inhibitory properties in vitro. Next, these 54 leads were tested for their cell-based inhibitory activity against CUL4A. A first cell-based assay involved the inhibition of DNA damage-binding protein 2 (DDB2) degradation in mouse embryonic fibroblast (MEF) cells in vitro. To determine the specificity of the compounds, another cell-based assay was performed to determine the inhibition of IKBa degradation in HeLa cells in vitro. Preferably, the compounds show high DDB2 inhibition and less inhibition of IKBa degradation. IkBa is a target of […], and this assay provides insight into the specificity of the compounds. These tests led to the selection of three active compounds that passed inhibition and selectivity thresholds and, thus, were suitable for use in cosmetic compositions. These were thymoquinone, lapachol and myrtucommulone C.
The Table below reports the ability of compounds to disrupt CUL4A activity in vitro (in a cell free CUL4 inhibition assay) ascertained from the BPB-CUL4A AlphaLISA assay. Activity above 30% was set to distinguish true hits from false positives.

CUL4A [2] = target: T1, CUL4A (Mus musculus, UniProt Q3TCH7); assay: cell-based assay, inhibition of DDB2 degradation in MEF cells after UV; details: DDB2 remaining after UV treatment over baseline compared to DMSO control
T1 construct: endogenous in cells; host or cells: mouse embryonic fibroblast (MEF) cells
T1 sequence (Q3TCH7 whole entry): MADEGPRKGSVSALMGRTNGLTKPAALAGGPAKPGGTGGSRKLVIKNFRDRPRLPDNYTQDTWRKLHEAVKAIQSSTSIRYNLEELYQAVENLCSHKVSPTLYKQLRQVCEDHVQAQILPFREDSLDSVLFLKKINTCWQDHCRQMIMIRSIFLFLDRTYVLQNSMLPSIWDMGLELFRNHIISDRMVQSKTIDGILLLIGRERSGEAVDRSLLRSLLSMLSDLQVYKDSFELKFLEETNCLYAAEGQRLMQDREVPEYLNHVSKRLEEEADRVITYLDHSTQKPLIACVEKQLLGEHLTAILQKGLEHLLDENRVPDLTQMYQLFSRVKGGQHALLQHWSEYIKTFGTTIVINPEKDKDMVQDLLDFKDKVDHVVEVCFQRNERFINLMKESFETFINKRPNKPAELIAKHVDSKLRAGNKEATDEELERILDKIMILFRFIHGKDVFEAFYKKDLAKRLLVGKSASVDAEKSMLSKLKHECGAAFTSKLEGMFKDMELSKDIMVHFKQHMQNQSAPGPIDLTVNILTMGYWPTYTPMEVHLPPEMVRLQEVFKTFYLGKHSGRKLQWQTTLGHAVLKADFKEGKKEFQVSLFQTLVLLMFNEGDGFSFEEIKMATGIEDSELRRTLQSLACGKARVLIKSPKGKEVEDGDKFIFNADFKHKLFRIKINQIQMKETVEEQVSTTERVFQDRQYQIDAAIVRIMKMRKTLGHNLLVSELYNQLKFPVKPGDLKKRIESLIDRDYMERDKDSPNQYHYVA
Protocol: as §1
In this cell-based assay, the % is DDB2 ([…]) remaining after UV treatment over baseline compared to a control group. In the DMSO control group, the DDB2 remaining % was between 20-30%.

human fibroblast cell = assay: Human Fibroblast Cell Assay: CPD ELISA of DNA damage after UVB; type: cell-based; details: UVB 35 mJ/cm^2, 12 hours
Protocol: Lastly, tests were conducted on human skin cells. The testing was performed using neonatal foreskin […], a type of skin cell that is a common model for skin testing across the cosmetic industry. The skin cells were purchased from Thermo Fisher Scientific Co. (NY) and grown in Dulbecco Modified Eagle Medium (DMEM) supplemented with 10% Fetal Bovine Serum (Thermo Fisher Scientific). Cultures were maintained at 37° C. within an air atmosphere of 5% carbon dioxide and about 95% humidity.
The skin cells were seeded in 12-well plates and incubated for 24 hours. After incubation, the cells were washed in […] (PBS) and irradiated with UVB at a dosage of 35 mJ/cm^2 using a Viber Lourmat BIO-Sun System (Marne-la-Vallee, France). The test compounds and control materials were added to the medium immediately following UVB irradiation; the treated mediums were allowed to continue for 12 hours at 37° C. under the air atmosphere with 5% carbon dioxide at about 95% humidity. In parallel, each test compound was added to non-irradiated cells as baseline controls. Untreated cells were used as negative controls. All treatments were performed in triplicate. Dosage levels for samples were 12.5 microMolar except lapachol dosed at 3 microMolar. Following incubation, the cells were washed with PBS, collected and stored at −80° C.
DNA was extracted from the collected cells using a QIAamp Blood Kit (QIAGEN, Calif., USA) in accordance with the manufacturer's protocol. The amounts of cyclobutane pyrimidine dimers (CPDs) in the various samples were determined by the CPD ELISA protocol. In accordance with this protocol, an OXISELECT® UV-Induced DNA Damage ELISA Kit (Cell Biolabs Inc., CA, USA) was employed for the testing done in accordance with the manufacturer's instructions. Amounts of CPD in UVB-treated samples were determined in percentage relative to the value of untreated fibroblasts. The greater the measured % CPD, the greater the DNA damage. Thus, in the Table below, the smaller the “Avg (% Untreated)” value, the better is the UVB damage induced inhibitory effect.
Mean standard deviation comparisons between data groups employed the GraphPad Prism 6.05 software (GraphPad Software, CA, USA). Statistical analysis was performed using ANOVA with Holm-Sidak's test or unpaired t-test with Welch's correction.

[3] = test system: primary human keratinocytes; assay: cytotoxicity assay (Cell Titer96 Aqueous One) on keratinocytes; type: cell-based; details: 24 h
Protocol: (§2) Normal primary adult human keratinocytes derived from a donor were purchased from PromoCell (Heidelberg, Germany) and cultured in keratinocytes growth medium (Epilife+EDGS, Thermo Fisher Scientific, NY, USA). Keratinocytes cultures were maintained at 37° C. with 5% CO2 and ˜95% humidity.
(§3) Cytotoxicity was evaluated using the Cell Titer96 Aqueous One (Promega, Wis., USA) basic test according to manufacturer's instructions. Cells were seeded at a density of 10,000 cells/well in a 96-well plate and cultured overnight. Treatments with seven doses of compounds were carried out for 24 hours, in triplicates. Colorimetric analysis was performed using an absorbance of 490 nm. Inhibition of viability of more than 20% of the control values was considered cytotoxic.
The cytotoxicity assay on primary human keratinocytes from adult donor was performed after 24 h of culture in the presence of different concentrations of each compound, as indicated in FIG. 2A and Table 1.

[4] = test system: primary human fibroblasts; assay: cytotoxicity assay (Cell Titer96 Aqueous One) on fibroblasts; details: 24 h
Protocol: Normal human dermal adult fibroblasts derived from a donor of were purchased from CELLnTec (Bern, Switzerland) and grown in DMEM supplemented with 10% FBS (Life Technologies, CA, USA). Fibroblasts cultures were maintained at 37° C. with 5% CO2 and ˜95% humidity.
as §3
The cytotoxicity assay on primary human fibroblasts from adult donor was performed after 24 h of culture in the presence of different concentrations of each compound, as indicated in FIG. 2B and Table 2.

[5] = test system: human epidermal keratinocytes; assay: microarray analysis of differential gene expression in keratinocytes; details: for number of genes downregulated / number of genes upregulated: 24 h
Protocol: as §2
Normal primary human keratinocytes were seeded in 6-well plates and incubated for 24 h. Cells were then washed in PBS (Thermo Fisher Scientific) and reincubated for 24 more hours in the presence of RGN1518 and RGN1538 (each at two different concentrations), vehicle control, or positive control. Following treatment, the cells were washed with PBS, collected and stored frozen at −80° C. before RNA extraction.
RNA was extracted using a Qiagen RNeasy kit (Qiagen, CA, USA) according to manufacturer's protocol.
18 vials containing RNA isolated from human epidermal keratinocytes and 18 vials containing RNA isolated from human fibroblasts were shipped to Thermo Fisher Scientific, Advanced BioMedical Laboratories (Cinnaminson, N.J.) on dry ice for Affymetrix Human Clariom D array processing.
The differential gene expression was obtained using a threshold of 0.05 for statistical significance (p-value) and a log fold change of expression with absolute value of at least 1. Gene expression was further analysed using Differential Expression Analysis and Pathway Analysis iPathwayGuide) by Advaita Bioinformatics Services (Plymouth, Mich.) in the context of pathways obtained from the Kyoto Encyclopedia of Genes and Genomes (KEGG) database (Release 84.0+/10-26, October 17) (Kanehisa et al., 2000; Kanehisa et al., 2002), gene ontologies from the Gene Ontology Consortium database (2017 Nov. 6) (Ashburner et al., 2000; Gene Ontology Consortium, 2001), miRNAs from the miRBase (Release 21) and […] (Targetscan version:Mouse:7.1, Human:7.1) databases (Agarwal et al., 2015; Nam et al., 2014; Griffiths-Jones et al., 2008; Kozomara and Griffiths-Jones, 2014; Friedman et al., 2009; Grimson et al., 2007), and diseases from the KEGG database (Release 84.0+/10-26, October 17) (Kanehisa et al., 2000; Kanehisa et al., 2002). All references are available in the reports for bioinformatics analysis of differential gene expression provided by Advaita Bioinformatics Services at the following link.

human fibroblasts = assay: microarray analysis of differential gene expression in fibroblasts; type: cell-based

Sequence of CUL4A (Homo sapiens, UniProt Q13619) (Q13619 whole entry, species assumed): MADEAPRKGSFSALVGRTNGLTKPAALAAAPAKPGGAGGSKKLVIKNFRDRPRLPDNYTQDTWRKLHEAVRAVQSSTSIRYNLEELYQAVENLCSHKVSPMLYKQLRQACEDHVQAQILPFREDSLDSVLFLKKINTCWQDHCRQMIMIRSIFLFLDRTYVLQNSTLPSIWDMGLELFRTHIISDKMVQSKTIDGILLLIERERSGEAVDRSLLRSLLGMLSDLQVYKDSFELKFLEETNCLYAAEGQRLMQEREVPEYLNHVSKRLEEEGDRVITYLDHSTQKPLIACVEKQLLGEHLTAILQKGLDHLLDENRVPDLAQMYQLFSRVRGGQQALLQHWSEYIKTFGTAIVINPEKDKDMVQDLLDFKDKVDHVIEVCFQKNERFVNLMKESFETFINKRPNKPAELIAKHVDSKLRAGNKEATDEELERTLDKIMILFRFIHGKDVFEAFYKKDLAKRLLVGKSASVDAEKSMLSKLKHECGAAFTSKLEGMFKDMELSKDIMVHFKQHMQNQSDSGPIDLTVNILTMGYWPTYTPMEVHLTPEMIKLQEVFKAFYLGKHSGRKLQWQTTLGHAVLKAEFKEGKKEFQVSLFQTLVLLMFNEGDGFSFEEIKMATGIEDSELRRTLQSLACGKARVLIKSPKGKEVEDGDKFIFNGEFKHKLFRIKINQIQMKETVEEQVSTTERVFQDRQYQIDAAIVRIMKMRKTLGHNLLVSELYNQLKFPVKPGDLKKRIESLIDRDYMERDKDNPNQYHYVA

SMILES: CC(C)=CCC1=C(O)C(=O)c2ccccc2C1=O [Lapachol, 2-hydroxy-3-(3-methylbut-2-enyl)naphthalene-1,4-dione]
% Inhibitory Activity (CUL4A [1]): 34.4% | DDB2 remaining after UV (% of baseline) (CUL4A [2]): 80% | Avg (% Untreated) (human fibroblast cell; 3 microMolar): 2076% | Avg (% of untreated) ([3]; 15.5 μM): 86% | Avg (% of untreated) ([3]; 31.1 μM): 86% | Avg (% of untreated) ([3]; 62.25 μM): 84% | concentrations that showed no cytotoxicity ([3]; cytotoxic = inhibition of viability of more than 20%): up to 62.25 μM | Avg (% of untreated) ([4]; 15.5 μM): 99% | Avg (% of untreated) ([4]; 31.1 μM): 98% | Avg (% of untreated) ([4]; 62.25 μM): 100% | concentrations that showed no cytotoxicity ([4]; unit not given): up to 62.25 | gene expression in Metabolism of Xenobiotics by Cytochrome P450 and Steroid Hormone Biosynthesis Pathways [5]: induced differential gene expression | number of genes downregulated ([5]; 31 μM, of 24905 assessed genes): 556 genes | number of genes upregulated ([5]; 31 μM, of 24905 assessed genes): 250 genes | number of genes downregulated ([5]; 62 μM): 461 genes | number of genes upregulated ([5]; 62 μM): 258 genes | expression of phase-I detoxification and steroid hormone biosynthesis genes ([5]; CYP1A1, CYP1B1, CYP2BG, GSTM3, AKR1C1, AKR1C2, AKR1C3, AKR1B15): upregulated | expression of genes important for normal differentiation and function of skin ([5]; FGF2, CSF1, SLCO2A1, SERPINB1): upregulated | expression of genes associated with inflammation ([5]; IL6, IL1R2, IL2RG, IL1RL1): upregulated | expression of Cell Cycle Pathway genes ([5]; MAD2L1, CDC20, CCNE2, CCNA2, CCNB2, CCNB1, BUB1, PLK1, CDC25C, BUB1B, TTK, ORC1, MCM6): downregulated | number of genes downregulated (human fibroblasts; 31 μM, 24 h, of 24905 genes): 30 genes | number of genes upregulated (human fibroblasts; 31 μM, 24 h, of 24905 genes): 104 genes | expression of RGCC and PTGS2 (regulation of fibroblast growth factor production) (human fibroblasts; at either concentration): upregulated | number of genes involved in regulation of endothelial cell migration upregulated (human fibroblasts; out of 70 genes): 3 genes

% Inhibitory Activity (CUL4A [1]): 48.9% | DDB2 remaining after UV (% of baseline) (CUL4A [2]): 115%
SMILES: CC(C)C(=O)c1c(O)c(C(C2=C(O)C(C)(C)C(=O)C(C)(C)C2=O)C(C)C)c(O)c2c1OC1=C(C(=O)C(C)(C)C(=O)C1(C)C)C2C(C)C (centres unmarked) [Myrtucommulone C, myrtucommulone C]
Avg (% Untreated) (human fibroblast cell; 12.5 microMolar): 1362%

expression of IL6 and IL1RL1 receptor [5]: upregulated | gene expression in Metabolism of Xenobiotics by Cytochrome P450 and Steroid Hormone Biosynthesis Pathways [5]: no major effect
SMILES: NC(=O)c1cccnc1 [Niacinamide, reference compound]
Avg (% Untreated) (human fibroblast cell; 12.5 microMolar): 2216% | Avg (% of untreated) ([3]; 3.1 mM): 105% | Avg (% of untreated) ([3]; 6.2 mM): 106% | Avg (% of untreated) ([3]; 12.5 mM): 104% | Avg (% of untreated) ([3]; 25 mM): 108% | Avg (% of untreated) ([3]; 50 mM): 95% | Avg (% of untreated) ([3]; 100 mM): 58% | Avg (% of untreated) ([3]; 200 mM): 46% | concentrations that showed no cytotoxicity [3]: up to 50 mM | Avg (% of untreated) ([4]; 3.1 mM): 100% | Avg (% of untreated) ([4]; 6.2 mM): 99% | Avg (% of untreated) ([4]; 12.5 mM): 97% | Avg (% of untreated) ([4]; 25 mM): 100% | Avg (% of untreated) ([4]; 50 mM): 91% | Avg (% of untreated) ([4]; 100 mM): 89% | Avg (% of untreated) ([4]; 200 mM): 61% | concentrations that showed no cytotoxicity [4]: up to 100 mM | expression of ASS1 and PTGS2 [5]: affected | expression of DNAJB9 [5]: downregulated | expression of IL1RG and IL1RL1 receptors [5]: no effect | expression of TYMS [5]: downregulated | expression of VEGFA [5]: no effect | expression of cell cycle genes ([5]; CDK1, PLK1, RB1, CDC25C, CDC25B, MAD2L1, CDKN2B, CCNA2, MAD1L1, TTK, ZBTB17, RBL1, CCNB1, CCNB2, BUB1, CDC20, PTTG1, BUB1B): downregulated only some of the genes | expression of Golgi apparatus genes with the exception of MGAT4A ([5]; COG6, ARFGAP3, IFT20): not affected | expression of FGF2 ([5]; compared with RGN1518): upregulated FGF2 to lesser extend | Mineral Absorption Pathway (human fibroblasts): affected | vascular wound healing, spreading of epidermal cells and vasculature development (gene profile) (human fibroblasts): no effect

% Inhibitory Activity (CUL4A [1]): 70.4% | DDB2 remaining after UV (% of baseline) (CUL4A [2]): 85%
SMILES: CC1=CC(=O)C(C(C)C)=CC1=O [Thymoquinone, 2-isopropyl-5-methylbenzo-1,4-quinone]
Avg (% Untreated) (human fibroblast cell; 12.5 microMolar): 2554%
